Tests used:
[1] = target: T1, COX-1 (Ovis aries, UniProt P05979); experiment: biochemical; conditions: ovine COX-1/COX-2 assay kit; mean of two determinations, deviation < 10% of mean
T1 construct: purchased Cayman chemical, MI, USA
T1 sequence (P05979 25-600): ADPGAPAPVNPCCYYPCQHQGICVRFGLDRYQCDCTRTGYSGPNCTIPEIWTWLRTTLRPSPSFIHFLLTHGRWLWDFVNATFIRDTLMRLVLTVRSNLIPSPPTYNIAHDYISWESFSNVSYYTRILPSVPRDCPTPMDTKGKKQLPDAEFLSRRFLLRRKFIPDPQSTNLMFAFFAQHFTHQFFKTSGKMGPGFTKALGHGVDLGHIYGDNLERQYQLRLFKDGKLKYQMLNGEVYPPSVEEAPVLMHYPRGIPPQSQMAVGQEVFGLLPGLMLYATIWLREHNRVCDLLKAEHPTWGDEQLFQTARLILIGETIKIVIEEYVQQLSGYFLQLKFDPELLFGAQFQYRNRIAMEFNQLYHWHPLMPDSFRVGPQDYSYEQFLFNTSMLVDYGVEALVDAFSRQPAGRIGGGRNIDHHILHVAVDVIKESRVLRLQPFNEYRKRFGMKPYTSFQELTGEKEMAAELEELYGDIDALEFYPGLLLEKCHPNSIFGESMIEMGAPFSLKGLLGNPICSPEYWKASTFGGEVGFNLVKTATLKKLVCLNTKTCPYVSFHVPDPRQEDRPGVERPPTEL
Description: (§1) A group of 1,4-dihydropyridine derivativespossessing a MeSO2 at the para-position of the C-4 phenyl ring, alkyl groups(R1) at the C-2 position and alkyloxycarbonyl groups(COOR2) at the C-3 position were prepared and evaluated for their ability to inhibit COX-1 and COX-2 using chemiluminescent kit (Cayman chemical, MI, USA) according to our previously reported method ([14]).

[2] = target: T2, COX-2 (Ovis aries, UniProt P79208); experiment: biochemical; assay type: biochemical; conditions: for COX-2 S.I. (in-vitro COX-2 selectivity index): COX-1 IC50/COX-2 IC50; for IC50: ovine COX-1/COX-2 assay kit, mean of two determinations, deviation < 10% of mean; for COX-2 inhibitory activity relative to compound 5e (in words): larger groups (propyl, phenyl) at C-2 position of compound 5e
T2 construct: purchased Cayman chemical, MI, USA
T2 sequence (P79208 17-603): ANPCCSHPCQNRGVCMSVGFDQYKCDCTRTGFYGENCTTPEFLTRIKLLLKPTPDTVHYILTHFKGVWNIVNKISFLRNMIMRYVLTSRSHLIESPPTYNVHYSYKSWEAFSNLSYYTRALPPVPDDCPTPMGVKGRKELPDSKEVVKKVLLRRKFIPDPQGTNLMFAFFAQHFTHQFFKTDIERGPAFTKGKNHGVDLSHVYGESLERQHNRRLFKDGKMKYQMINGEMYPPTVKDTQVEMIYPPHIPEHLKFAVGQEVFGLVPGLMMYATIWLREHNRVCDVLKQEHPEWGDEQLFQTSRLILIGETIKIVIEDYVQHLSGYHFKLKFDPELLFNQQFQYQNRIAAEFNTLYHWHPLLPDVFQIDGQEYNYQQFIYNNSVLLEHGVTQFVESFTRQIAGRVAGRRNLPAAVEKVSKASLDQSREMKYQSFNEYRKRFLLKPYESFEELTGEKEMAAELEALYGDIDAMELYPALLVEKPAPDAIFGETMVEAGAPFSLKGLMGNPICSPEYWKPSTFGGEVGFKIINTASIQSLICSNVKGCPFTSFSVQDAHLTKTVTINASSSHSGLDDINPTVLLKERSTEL
Description: as §1

COC(=O)C1=C(C)NC2=C(C(=O)CC(C)(C)C2)C1c1ccc(S(C)(=O)=O)cc1 (stereo not drawn) [Compound 5a, Methyl-1,4,5,6,7,8-hexahydro-2,7,7-trimethyl-4-(4-(methylsulfonyl)phenyl)-5-oxoquinoline-3-carboxylate]
IC50 [1]: 30.2 µM | COX-2 S.I. (in-vitro COX-2 selectivity index) [2]: 62.9 | IC50 [2]: 0.48 µM | melting point: 244 to 245 °C

COC(=O)C1=C(N)NC2=C(C(=O)CC(C)(C)C2)C1c1ccc(S(C)(=O)=O)cc1 (stereo not drawn) [Compound 5b, Methyl-2-amino-1,4,5,6,7,8-hexahydro-7,7-dimethyl-4-(4-(methylsulfonyl)phenyl)-5-oxo quinolone-3-carboxylate]
IC50 [1]: 31 µM | COX-2 S.I. (in-vitro COX-2 selectivity index) [2]: 70.4 | IC50 [2]: 0.44 µM

CCC1=C(C(=O)OC)C(c2ccc(S(C)(=O)=O)cc2)C2=C(CC(C)(C)CC2=O)N1 (stereo not drawn) [Compound 5c, Methyl-2-ethyl-1,4,5,6,7,8-hexahydro-7,7-dimethyl-4-(4-(methylsulfonyl)phenyl)-5-oxoquinoline-3-carboxylate]
IC50 [1]: 30.7 µM | COX-2 S.I. (in-vitro COX-2 selectivity index) [2]: 52.1 | IC50 [2]: 0.59 µM | melting point: 186.5 to 188 °C

COC(=O)C1=C(C(C)C)NC2=C(C(=O)CC(C)(C)C2)C1c1ccc(S(C)(=O)=O)cc1 (stereo not drawn) [Compound 5d]
IC50 [1]: 27.6 µM | IC50 [2]: 0.62 µM

CCOC(=O)C1=C(C)NC2=C(C(=O)CC(C)(C)C2)C1c1ccc(S(C)(=O)=O)cc1 (stereo not drawn) [Compound 5e, Ethyl-1,4,5,6,7,8-hexahydro-2,7,7-trimethyl-4-(4-(methylsulfonyl)phenyl)-5-oxoquinoline-3-carboxylate]
IC50 [1]: 27.6 µM | COX-2 S.I. (in-vitro COX-2 selectivity index) [2]: 92.0 | IC50 [2]: 0.3 µM | melting point: 180.7 to 182.3 °C

CCCC1=C(C(=O)OCC)C(c2ccc(S(C)(=O)=O)cc2)C2=C(CC(C)(C)CC2=O)N1 (stereo not drawn) [Compound 5f, Ethyl-1,4,5,6,7,8-hexahydro-7,7-dimethyl-4-(4-(methylsulfonyl)phenyl)-5-oxo-2-propylquinoline-3-carboxylate]
IC50 [1]: 25.2 µM | COX-2 S.I. (in-vitro COX-2 selectivity index) [2]: 18.2 | COX-2 inhibitory activity relative to compound 5e (in words) [2]: significant loss of activities | IC50 [2]: 1.38 µM | melting point: 163 to 164 °C

CCOC(=O)C1=C(c2ccccc2)NC2=C(C(=O)CC(C)(C)C2)C1c1ccc(S(C)(=O)=O)cc1 (stereo not drawn) [Compound 5g, Ethyl-1,4,5,6,7,8-hexahydro-7,7-dimethyl-4-(4-(methylsulfonyl)phenyl)-5-oxo-2-phenylquinoline-3-carboxylate]
IC50 [1]: 46.1 µM | COX-2 inhibitory activity relative to compound 5e (in words) [2]: significant loss of activities | IC50 [2]: > 100 µM | melting point: 187.9 to 189 °C

CC1=C(C(=O)OC(C)(C)C)C(c2ccc(S(C)(=O)=O)cc2)C2=C(CC(C)(C)CC2=O)N1 (stereo not drawn) [Compound 5h, t-Butyl-1,4,5,6,7,8-hexahydro-2,7,7-trimethyl-4-(4-methanesulfonyl-phenyl)-5-oxo-quinoline-3-carboxylate]
IC50 [1]: 25.5 µM | COX-2 S.I. (in-vitro COX-2 selectivity index) [2]: 63.7 | IC50 [2]: 0.4 µM | melting point: 163 to 164 °C

CC1=C(C(=O)OCc2ccccc2)C(c2ccc(S(C)(=O)=O)cc2)C2=C(CC(C)(C)CC2=O)N1 (stereo not drawn) [Compound 5i]
IC50 [1]: 22.9 µM | IC50 [2]: > 100 µM | melting point: 136.9 to 138.9 °C
